A melting point compilation (Tetko et al.; mined from patent text by program, amines drawn as free bases though some values may be those of a salt)

Structure (SMILES) | melting point
COc1ccc(-c2cc3cc(F)c(F)cc3[nH]2)cc1NCc1ccc([N+](=O)[O-])c(O)c1 | 170 to 171 °C
CCOC(=O)C(=O)Nc1ccc(C(N)=O)c(C(N)=O)c1 | 229 to 230 °C
Cc1c(-c2ccnc(C(F)(F)F)c2)sc2nc(N)[nH]c(=O)c12 | 335 to 355 °C
CCCCCCCCCCCCCCN(c1ccccc1)c1snnc1C(N)=O | 79 to 81 °C
Cc1nnc2n1-c1sc(CCc3ccccc3)cc1C(c1ccccc1Cl)=NC2 | 106 to 108 °C
CC(=O)c1c(CCc2ccc(F)cc2)[nH]c2ccc(Cl)cc12 | 170 to 172 °C
COc1ccc2c(C(C)C(=O)OC3CC(=O)NC3=O)cccc2c1 (stereo not drawn) | 126 °C
Cc1csc2c1S(=O)(=O)N=C(NC(C)C)N2 | 152 to 154 °C
Clc1ccc(CCN2CCC3(CC2)Oc2ccccc2Cn2cccc23)cc1 | 116 to 118 °C
O=C(Nc1ccccc1-c1nc2cccnc2o1)c1ccccc1 | 197 to 198 °C
CCN(CC)CCC(=O)NC1c2ccccc2-c2[nH]c(=O)c3nccn3c21 (stereo not drawn) | 260 °C
O=C1c2c(n3c4c(cccc24)OCC3c2ccccc2)CCC1(Cl)Cl (stereo not drawn) | 104 °C
Cc1cccc(-c2nnc(Nc3ccc(Br)c(Cl)c3)s2)c1 | 230 to 231 °C
CCCS(=O)(=O)Nc1c(C)cc(OC(=O)NC)cc1C | 173 to 176 °C
COc1ccc(-c2cc(C#N)c(=O)[nH]c2C)cc1 | 258 to 259 °C
CC(=O)c1cc(-c2ccncc2)[nH]c1C | 236 to 237 °C
CC(C)OC(=O)CCc1nc(-c2ccc(Cl)cc2)co1 | 30 to 31 °C
COc1ccc2c(c1)CCC(c1ccccc1)=C2c1ccccc1 | 98 to 101 °C
Cc1cc(-c2cccc(CO)c2)cn2cc(-c3ccc(Cl)cc3)nc12 | 174 to 177 °C
O=C(O)c1c([N+](=O)[O-])ccc2c1OCCO2 | 188 °C
COc1cc(O)c(C(=O)C=Cc2ccco2)c(OC)c1 | 98.4 °C
NC(=O)C1CCN(c2ccncc2Cl)CC1 | 210 to 212 °C
COCc1ccc(Cc2cccc(-c3c(O)c4ccc(Cl)cc4[nH]c3=O)c2)cc1 | 276 to 278 °C
N=C(NO)c1cnc(N)nc1 | 218 °C
CC(=O)NC[C@H]1CN(c2cc(F)c(N3CCC(Cc4nnn[nH]4)CC3)c(F)c2)C(=O)O1 | 176 to 178 °C
CC(C)COC(=O)Nc1ccc(Br)cc1 | 95 to 96 °C

Structure (SMILES) | melting point
COCC1CN(c2ccc(C3CCCCC3)c(O)c2)C(=O)O1 (racemic) | 207 to 208 °C
Cc1cc(-c2c(-c3ccc(S(C)(=O)=O)cc3)cnn(-c3ccc(F)c(Cl)c3)c2=O)ccc1F | 207 to 208 °C
Cc1cccc(C=CC(=O)C=Cc2cccc(C)c2)c1 | 68 to 72 °C
CCOC(=O)c1c(-c2ccccc2Cl)c2cc(Cl)ccc2[nH]c1=O | 223 to 224 °C
COc1ccc(-c2c(C(=O)Cl)sc3ccccc23)cc1OC | 113 °C
COC(=O)c1cc(C(=O)NC2CCOCC2)c2cc(Cc3ccc(F)cc3)cnc2c1O | 246 to 247 °C
COC(=O)c1ccccc1-n1c(CCl)nc2c(C)cccc2c1=O | 168 to 169 °C
COc1ccccc1-c1cncc(OC2SCC(O)C(O)C2O)c1 (stereo not drawn) | 209 to 211 °C
Cc1ccc(Nc2ccccc2NC(=O)CCCc2ccc(N=C(N)c3cccs3)cc2)cc1 | 66 to 68 °C
COc1ccc(Nc2ncc3c(n2)-c2sc(C)nc2CC3)cn1 | 210 to 211 °C
COCCc1nc2ccccn2c(=O)c1-c1ccc(Cl)cc1 | 116 to 118 °C
O=C(O)CN1C(=O)[C@@H](N[C@@H](CCc2ccccc2)C(=O)O)COc2ccccc21 | 127 to 130 °C
O=c1c2ccc(O)c(O)c2oc2cccc(O)c12 | 300 to 301 °C
Cn1cc(C(=O)NCc2ccc(Cl)cc2)c(=O)c2cc(Br)oc21 | 232 to 233 °C
CCC1SC(NC)=NN1C(=O)C(C)(C)C (stereo not drawn) | 78.5 to 80 °C
O=C(C(=O)c1ccc(Oc2ccc(O)cc2)cc1)c1ccc(Oc2ccc(O)cc2)cc1 | 220 to 221 °C
NC(=O)CCN1CCC(C(O)(c2ccc(F)cc2)c2ccc(F)cc2)CC1 | 136 to 137 °C
O=C1CCCN1c1nc(-n2ccnc2)c(I)c(C(F)(F)F)n1 | 195 to 197 °C
COc1cc(OC)c2c(c1)OC(C(C)(C)C#N)CC2=O (stereo not drawn) | 170 °C
CC(C)(C#N)c1cc(Cn2ccnc2)cc(C(N)=O)c1 | 149 to 150 °C
O=C(O)c1ccc(Br)cc1Cc1ccccc1 | 137 °C
Cc1oc(-c2ccccc2)nc1COc1ccc(COc2nn(-c3ccccc3)cc2CC(=O)O)cc1 | 151 to 152 °C
Brc1cncc(OCc2ccc3ccccc3c2)c1 | 108 to 109 °C
OCC1OC(n2cnc3c(SCc4ccccc4)cc(Cl)nc32)C(O)C1O (stereo not drawn) | 154 to 156 °C
CC(=O)N[C@H]1C(n2cc(Cl)cnc2=O)O[C@H](COC(C)=O)[C@@H](OC(C)=O)[C@@H]1OC(C)=O (stereo partly drawn) | 165 to 167 °C
COC(=O)/C=C/n1cnc2ccc(O)cc2c1=O | 252 to 256 °C

Structure (SMILES) | melting point
COC(=O)C1=C(C)Nc2nccn2C1c1ccccn1 (stereo not drawn) | 224 to 226 °C
COc1cccc(Oc2ccc3ccc(-c4cc(OC)ccc4C(N)=O)nc3n2)c1 | 150 °C
COC(=O)NN=C1CCCCC1=Cc1ccc(Cl)cc1 | 160 to 162 °C
Nc1cc(Cc2n[nH]c(=O)c3ccccc23)ccc1Cl | 227 to 228 °C
O=C1c2ccc(O)cc2CCN1CCN1CCCC1 | 205 to 207 °C
CNC(=O)N(C)c1nnc(C(C)(CCl)CCl)s1 | 150 to 152 °C
CCN(CC)CCCOc1ccc(C(O)(CC)c2cccc(C(F)(F)F)c2)cc1 (stereo not drawn) | 44 to 46 °C
COc1ccc(O[C@@H]2CN(Cc3ccccc3)C[C@H]2O)cc1 (relative stereo) | 84 to 85 °C
CS(=O)(=O)c1ccc(Cn2ccc(OCc3ccc(F)cc3F)c(Cl)c2=O)cc1 | 223 to 225 °C
CS(=O)(=O)N1C[C@H](S)C[C@H]1COC(=O)Nc1ccccc1 | 148 °C
CCOC(=O)CCSC(CC)=NNC(N)=O | 63.5 to 64.5 °C
CC(C)Oc1ccc(CCCOc2cc(CCC(=O)O)n(Cc3ccccc3)n2)c(Oc2ncc(C(F)(F)F)cc2Cl)c1 | 99 to 100 °C
CCOc1cc(Cc2cnc(N)nc2N)cc2c1OC(C)(C)C=C2c1ccncc1 | 223 to 226 °C
O=C1NCC(=O)c2c(ncn2C2OC(COC(=O)c3ccccc3)C(OC(=O)c3ccccc3)C2OC(=O)c2ccccc2)N1 (stereo not drawn) | 239 °C
CC(C)(C)c1ccc(CC[C@H](CC2CCCCC2)O[Si](C)(C)C(C)(C)C)cc1NC(=O)CC1c2ccccc2Oc2ccccc21 | 173 to 174 °C
CCCC1=C(C(=O)OCC)C(C)(c2ccccc2)c2c[nH]nc2N1 (stereo not drawn) | 207 °C
C#CCOC(=O)Cc1c(C)nn(-c2cnccc2C)c1-c1ccccc1 | 106 °C
O=C(O)C1CCc2c(c3ccccc3n2C(=O)c2cccc(I)c2)C1 (stereo not drawn) | 210 to 212 °C
CC1(C)OC(=O)Nc2c(Br)cc(-c3cc(F)cc(C#N)c3)cc21 | 216 to 217 °C
Cc1ccc(-c2ccccc2)cc1C#N | 71 to 73 °C
CCOC(=O)c1ccc(NC(=O)NCCN2CCN=C2c2ccncc2)cc1 | 120 °C
CNC(=O)C(=C/c1ccccc1)/C(=C\c1cc(OC)c(OC)c(OC)c1)C(=O)OC | 155 to 157 °C
Cc1cc(CNC(=O)c2sc(N3C[C@@H](C)N(Cc4cc(F)cc(F)c4)C3=O)nc2C)no1 | 63 to 66 °C
Cc1cccc2ncc3nnnn3c12 | 166 to 168 °C
CS(=O)(=O)C1C(O)C(CO)OC1n1ccc(=O)[nH]c1=O (stereo not drawn) | 227 to 228 °C
CCC(CC)Nc1ccc2c(c1)N1CCCN=C1S2 | 114 °C

Structure (SMILES) | melting point
O=C(O)c1cc2ccsc2cn1 | 246 °C
O=C(O)[C@H](Cc1ccccc1)NC(=O)[C@@H]1CCCN1S(=O)(=O)c1ccc([N+](=O)[O-])cc1 | 70 to 80 °C
CS(=O)(=O)c1ccc(-c2coc3ccc(-c4nnc(O)o4)cc23)cc1 | 284 to 285 °C
CS(=O)(=O)c1ccc2nc(NC(=N)N)nc(-c3ccccc3)c2c1 | 180 to 185 °C
O=Cc1ccc2c(C=O)c[nH]c2c1 | 200 to 203 °C
COC(=O)Cn1ccc2ccc(-c3nccc(-c4ccccc4)n3)cc21 | 111 °C
COCC1CN(c2ccc(Br)nc2)C(=O)O1 (racemic) | 108 to 110 °C
O=C(Nc1cccnc1)N1CCN(c2cc(-c3cccc(F)c3F)ncn2)CC1 | 179 to 180 °C
CN(C)C1Cc2cccc3[nH]c(=S)n(c23)C1 (stereo not drawn) | 203 to 205 °C
CCn1c2c(c3ccccc31)SCCC2(C)C=O (stereo not drawn) | 88.5 to 90 °C
O=C(Nc1nccs1)c1cccc(-c2ccc3c(c2)C(Oc2ccc(Cl)cc2Cl)CC3)c1 (stereo not drawn) | 180 to 181 °C
Nc1ncnc(N2CCc3ccccc3CC2)c1[N+](=O)[O-] | > 200 °C
O=C(O)C1CC(=O)N(c2ccccc2)N1 (stereo not drawn) | 197 to 199 °C
COc1c(Cl)ccnc1CO | 64 to 66 °C
COC(=O)c1nn(Cc2ccc(Br)cc2F)c(=O)c2ccc(F)cc12 | 131 to 134 °C
O=[N+]([O-])c1cc(F)c(NS(=O)(=O)c2ccccc2)cc1F | 176 °C
CC1(C)NC(=O)c2ccc(O)cc21 | 231 to 233 °C
O=c1[nH]c2ncc(-c3ccc(-n4cccn4)cc3)nc2n1CCC1CCOCC1 | 294 to 296 °C
CONC(=O)Cc1cccc(C(=O)c2ccc(Cl)cc2)c1C | 150 °C
CC1Nc2ccc(Cl)c3cccc(c23)S1(=O)=O (stereo not drawn) | 150 °C
CCCCCCCCCCc1ccc2cc(OS(=O)(=O)C(F)(F)F)c(SC)cc2c1 | 42 to 42.9 °C
NS(=O)(=O)c1ccc(C2=C(c3ccc(F)cc3)CC3(CCC3)C2)cc1 | 118 to 119 °C
CC(C)C[C@H](NC(=O)c1ccco1)C(=O)N[C@@H](C(C)C)[C@@H](O)c1c(-c2ccccc2)c1=O | 101 to 105 °C
OCCCCCCn1nc(-c2ccccc2)c(-c2ccccc2)c1-c1ccccc1 | 76 to 78 °C
O=C(ON1C(=O)CCC1=O)c1ccc(-c2ccc(S(=O)(=O)NCCO)cc2)[nH]c1=O | 204 to 205 °C
